# Experimental data published in the supplement of paper PMC10307832.
# Key:
# Assay in all cases: relative viability (nuclei count vs DMSO), 5 days (fraction); higher = more cells survive
# [1] = compound: CC1=CC(=CC=C1)NC2=NC(=CS2)C3=CC=NC=C3 + Nc1nc2[nH]cc(CCc3ccc(C(=O)N[C@@H](CCC(=O)O)C(=O)O)cc3)c2c(=O)[nH]1 [Pemetrexed] (partner 0.2 µM)
# In short: (§1)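 A single step with final 0.05% Triton X-100, 1% formaldehyde and 1 ug/ml Hoechst fixed the cells and stained nuclei 5 days after treatment. Lung cancer cell lines in 1536-well plates had been treated by pin tool the day after seeding with one drug alone or a fixed anchor-drug dose plus five library-drug doses (not always all listed) in √10 steps, and nuclei were counted on 4× images. Relative viability is the ratio of nuclei in treated wells to nuclei in vehicle wells, taken as the median of duplicate plates.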
# Masitinib + Foretinib = compound: Cc1ccc(NC(=O)c2ccc(CN3CCN(C)CC3)cc2)cc1Nc1nc(-c2cccnc2)cs1 [Masitinib] + COc1cc2c(Oc3ccc(NC(=O)C4(C(=O)Nc5ccc(F)cc5)CC4)cc3F)ccnc2cc1OCCCN1CCOCC1 [Foretinib] (partner 0.25 µM)
# In short: as §1
# Masitinib + Pemetrexed = compound: Cc1ccc(NC(=O)c2ccc(CN3CCN(C)CC3)cc2)cc1Nc1nc(-c2cccnc2)cs1 [Masitinib] + Nc1nc2[nH]cc(CCc3ccc(C(=O)N[C@@H](CCC(=O)O)C(=O)O)cc3)c2c(=O)[nH]1 [Pemetrexed] (partner 0.2 µM)
# In short: as §1
# Masitinib + Trametinib = compound: Cc1ccc(NC(=O)c2ccc(CN3CCN(C)CC3)cc2)cc1Nc1nc(-c2cccnc2)cs1 [Masitinib] + CC(=O)Nc1cccc(-n2c(=O)n(C3CC3)c(=O)c3c(Nc4ccc(I)cc4F)n(C)c(=O)c(C)c32)c1 [Trametinib] (partner 0.02 µM)
# In short: as §1
cell line,measurement,setting,value
NCI-H441,relative viability,[1]; first compound 0.08 µM,0.265
same,relative viability,[1]; first compound 0.253 µM,0.265
same,relative viability,[1]; first compound 0.8 µM,0.246
same,relative viability,[1]; first compound 2.53 µM,0.255
same,relative viability,[1]; first compound 8 µM,0.255
same,relative viability,Masitinib + Foretinib; first compound 0.01 µM,0.909
same,relative viability,Masitinib + Foretinib; first compound 0.03162 µM,0.976
same,relative viability,Masitinib + Foretinib; first compound 0.1 µM,1.12
same,relative viability,Masitinib + Foretinib; first compound 0.3162 µM,1.48
same,relative viability,Masitinib + Foretinib; first compound 1 µM,0.691
same,relative viability,Masitinib + Pemetrexed; first compound 0.01 µM,0.261
same,relative viability,Masitinib + Pemetrexed; first compound 0.03162 µM,0.273
same,relative viability,Masitinib + Pemetrexed; first compound 0.1 µM,0.244
same,relative viability,Masitinib + Pemetrexed; first compound 0.3162 µM,0.261
same,relative viability,Masitinib + Pemetrexed; first compound 1 µM,0.256
same,relative viability,Masitinib + Trametinib; first compound 0.01 µM,0.5
same,relative viability,Masitinib + Trametinib; first compound 0.03162 µM,0.488
same,relative viability,Masitinib + Trametinib; first compound 0.1 µM,0.547
same,relative viability,Masitinib + Trametinib; first compound 0.3162 µM,0.336
same,relative viability,Masitinib + Trametinib; first compound 1 µM,0.397
PC-14,relative viability,[1]; first compound 0.08 µM,0.144
same,relative viability,[1]; first compound 0.253 µM,0.131
same,relative viability,[1]; first compound 0.8 µM,0.141
same,relative viability,[1]; first compound 2.53 µM,0.134
same,relative viability,[1]; first compound 8 µM,0.136
same,relative viability,Masitinib + Foretinib; first compound 0.01 µM,0.809
same,relative viability,Masitinib + Foretinib; first compound 0.03162 µM,0.831
same,relative viability,Masitinib + Foretinib; first compound 0.1 µM,0.857
same,relative viability,Masitinib + Foretinib; first compound 0.3162 µM,0.957
same,relative viability,Masitinib + Foretinib; first compound 1 µM,0.949
same,relative viability,Masitinib + Pemetrexed; first compound 0.01 µM,0.137
same,relative viability,Masitinib + Pemetrexed; first compound 0.03162 µM,0.144
same,relative viability,Masitinib + Pemetrexed; first compound 0.1 µM,0.13
same,relative viability,Masitinib + Pemetrexed; first compound 0.3162 µM,0.12
same,relative viability,Masitinib + Pemetrexed; first compound 1 µM,0.141
same,relative viability,Masitinib + Trametinib; first compound 0.01 µM,0.774
same,relative viability,Masitinib + Trametinib; first compound 0.03162 µM,0.634
same,relative viability,Masitinib + Trametinib; first compound 0.1 µM,0.909
same,relative viability,Masitinib + Trametinib; first compound 0.3162 µM,0.729
same,relative viability,Masitinib + Trametinib; first compound 1 µM,0.821
HARA,relative viability,[1]; first compound 0.08 µM,0.267
same,relative viability,[1]; first compound 0.253 µM,0.22
same,relative viability,[1]; first compound 0.8 µM,0.203
same,relative viability,[1]; first compound 2.53 µM,0.255
same,relative viability,[1]; first compound 8 µM,0.276
same,relative viability,Masitinib + Foretinib; first compound 0.03162 µM,0.795
same,relative viability,Masitinib + Foretinib; first compound 0.1 µM,0.913
same,relative viability,Masitinib + Foretinib; first compound 0.3162 µM,0.437
same,relative viability,Masitinib + Foretinib; first compound 1 µM,0.819
same,relative viability,Masitinib + Pemetrexed; first compound 0.01 µM,0.217
same,relative viability,Masitinib + Pemetrexed; first compound 0.03162 µM,0.324
same,relative viability,Masitinib + Pemetrexed; first compound 0.1 µM,0.24
same,relative viability,Masitinib + Pemetrexed; first compound 1 µM,0.279
same,relative viability,Masitinib + Trametinib; first compound 0.01 µM,0.767
same,relative viability,Masitinib + Trametinib; first compound 0.03162 µM,0.627
same,relative viability,Masitinib + Trametinib; first compound 0.1 µM,0.946
same,relative viability,Masitinib + Trametinib; first compound 1 µM,0.897
NCI-H2126,relative viability,[1]; first compound 0.08 µM,0.596
same,relative viability,[1]; first compound 0.253 µM,0.599
same,relative viability,[1]; first compound 0.8 µM,0.657
same,relative viability,[1]; first compound 2.53 µM,0.599
same,relative viability,[1]; first compound 8 µM,0.719
same,relative viability,Masitinib + Foretinib; first compound 0.01 µM,1.08
same,relative viability,Masitinib + Foretinib; first compound 0.03162 µM,0.97
same,relative viability,Masitinib + Foretinib; first compound 0.1 µM,1.08
same,relative viability,Masitinib + Foretinib; first compound 0.3162 µM,1.35
same,relative viability,Masitinib + Foretinib; first compound 1 µM,1.02
same,relative viability,Masitinib + Pemetrexed; first compound 0.01 µM,0.633
same,relative viability,Masitinib + Pemetrexed; first compound 0.03162 µM,0.713
same,relative viability,Masitinib + Pemetrexed; first compound 0.1 µM,0.672
same,relative viability,Masitinib + Pemetrexed; first compound 0.3162 µM,0.665
same,relative viability,Masitinib + Pemetrexed; first compound 1 µM,0.738
same,relative viability,Masitinib + Trametinib; first compound 0.01 µM,0.523
same,relative viability,Masitinib + Trametinib; first compound 0.03162 µM,0.54
same,relative viability,Masitinib + Trametinib; first compound 0.1 µM,0.562
same,relative viability,Masitinib + Trametinib; first compound 0.3162 µM,0.507
same,relative viability,Masitinib + Trametinib; first compound 1 µM,0.534
NCI-H2342,relative viability,[1]; first compound 0.08 µM,0.615
same,relative viability,[1]; first compound 0.253 µM,0.796
same,relative viability,[1]; first compound 0.8 µM,0.765
same,relative viability,[1]; first compound 2.53 µM,0.789
same,relative viability,[1]; first compound 8 µM,0.759
same,relative viability,Masitinib + Foretinib; first compound 0.01 µM,1.09
same,relative viability,Masitinib + Foretinib; first compound 0.03162 µM,0.875
same,relative viability,Masitinib + Foretinib; first compound 0.1 µM,1.08
same,relative viability,Masitinib + Foretinib; first compound 0.3162 µM,1.13
same,relative viability,Masitinib + Foretinib; first compound 1 µM,1.01
same,relative viability,Masitinib + Pemetrexed; first compound 0.01 µM,0.741
same,relative viability,Masitinib + Pemetrexed; first compound 0.03162 µM,0.72
same,relative viability,Masitinib + Pemetrexed; first compound 0.1 µM,0.831
same,relative viability,Masitinib + Pemetrexed; first compound 0.3162 µM,0.746
same,relative viability,Masitinib + Pemetrexed; first compound 1 µM,0.781
same,relative viability,Masitinib + Trametinib; first compound 0.01 µM,0.89
same,relative viability,Masitinib + Trametinib; first compound 0.03162 µM,0.7
same,relative viability,Masitinib + Trametinib; first compound 0.1 µM,0.844
same,relative viability,Masitinib + Trametinib; first compound 0.3162 µM,0.797
same,relative viability,Masitinib + Trametinib; first compound 1 µM,0.875
NCI-H1915,relative viability,[1]; first compound 0.08 µM,0.496
same,relative viability,[1]; first compound 0.253 µM,0.493
same,relative viability,[1]; first compound 0.8 µM,0.508
same,relative viability,[1]; first compound 2.53 µM,0.508
same,relative viability,[1]; first compound 8 µM,0.401
same,relative viability,Masitinib + Foretinib; first compound 0.03162 µM,1.13
same,relative viability,Masitinib + Foretinib; first compound 0.3162 µM,1.1
same,relative viability,Masitinib + Foretinib; first compound 1 µM,1.11
same,relative viability,Masitinib + Pemetrexed; first compound 0.03162 µM,0.507
same,relative viability,Masitinib + Pemetrexed; first compound 0.3162 µM,0.467
same,relative viability,Masitinib + Pemetrexed; first compound 1 µM,0.496
same,relative viability,Masitinib + Trametinib; first compound 0.03162 µM,0.635
same,relative viability,Masitinib + Trametinib; first compound 0.3162 µM,0.302
same,relative viability,Masitinib + Trametinib; first compound 1 µM,0.302
ChaGo-K-1,relative viability,[1]; first compound 0.08 µM,0.259
same,relative viability,[1]; first compound 0.253 µM,0.272
same,relative viability,[1]; first compound 0.8 µM,0.249
same,relative viability,[1]; first compound 2.53 µM,0.266
same,relative viability,[1]; first compound 8 µM,0.252
same,relative viability,Masitinib + Foretinib; first compound 0.01 µM,0.961
same,relative viability,Masitinib + Foretinib; first compound 0.03162 µM,0.863
same,relative viability,Masitinib + Foretinib; first compound 0.1 µM,0.924
same,relative viability,Masitinib + Foretinib; first compound 0.3162 µM,0.967
same,relative viability,Masitinib + Foretinib; first compound 1 µM,0.907
same,relative viability,Masitinib + Pemetrexed; first compound 0.01 µM,0.251
same,relative viability,Masitinib + Pemetrexed; first compound 0.03162 µM,0.274
same,relative viability,Masitinib + Pemetrexed; first compound 0.1 µM,0.258
same,relative viability,Masitinib + Pemetrexed; first compound 0.3162 µM,0.248
same,relative viability,Masitinib + Pemetrexed; first compound 1 µM,0.251
same,relative viability,Masitinib + Trametinib; first compound 0.01 µM,0.972
same,relative viability,Masitinib + Trametinib; first compound 0.03162 µM,0.852
same,relative viability,Masitinib + Trametinib; first compound 0.1 µM,0.986
same,relative viability,Masitinib + Trametinib; first compound 0.3162 µM,0.909
same,relative viability,Masitinib + Trametinib; first compound 1 µM,0.906
NCI-H661,relative viability,[1]; first compound 0.08 µM,0.876
same,relative viability,[1]; first compound 0.253 µM,0.959
same,relative viability,[1]; first compound 0.8 µM,0.889
same,relative viability,[1]; first compound 2.53 µM,0.907
same,relative viability,[1]; first compound 8 µM,0.871
same,relative viability,Masitinib + Foretinib; first compound 0.01 µM,0.945
same,relative viability,Masitinib + Foretinib; first compound 0.03162 µM,1.05
same,relative viability,Masitinib + Foretinib; first compound 0.1 µM,1.04
same,relative viability,Masitinib + Foretinib; first compound 0.3162 µM,0.95
same,relative viability,Masitinib + Foretinib; first compound 1 µM,0.965
same,relative viability,Masitinib + Pemetrexed; first compound 0.01 µM,0.9
same,relative viability,Masitinib + Pemetrexed; first compound 0.03162 µM,0.913
same,relative viability,Masitinib + Pemetrexed; first compound 0.1 µM,0.946
same,relative viability,Masitinib + Pemetrexed; first compound 0.3162 µM,0.939
same,relative viability,Masitinib + Pemetrexed; first compound 1 µM,0.895
same,relative viability,Masitinib + Trametinib; first compound 0.01 µM,0.493
same,relative viability,Masitinib + Trametinib; first compound 0.03162 µM,0.486
same,relative viability,Masitinib + Trametinib; first compound 0.1 µM,0.563
same,relative viability,Masitinib + Trametinib; first compound 0.3162 µM,0.591
same,relative viability,Masitinib + Trametinib; first compound 1 µM,0.564
